Measured values reported in patent publication US11680078B2, “Anticancer compounds” (GODAVARI BIOREFINERIES LIMITED, priority 2017, dated 2023).
“And” between values parts separate entries of the source, which are not always exact repeats. Equal entries are not always repeated.

Legend:
[1] = tested on: MDAMB231; assay: MTT antiproliferative assay, MDAMB231; assay type: cell-based; details: MDAMB231 breast cell line, 48 hrs drug incubation
Method: (§1) MTT assay is a simple and sensitive assay where, metabolic reducing activity of the cells is measured. The increase of this activity in time is taken as a parameter of cell growth. If treatment with a drug impairs this increase, the action may be a consequence of growth inhibition, cell killing or both. The compounds of Formula V to XIV of the present invention, standard cytotoxic drug (e.g. Cisplatin) were tested at different concentrations (1, 0.1, 0.01, 0.001 mM) using breast and prostate cancer cell lines. All cell lines were cultured in a 37° C. incubator with a 5% CO2 environment. Compounds were dissolved in DMSO with a concentration of 0.1M (stock solution). Cells were seeded into 96-well plates at suitable plating efficiency.
(§2) Following Plating Efficiencies were Standardized for MTT Assay:
(§3) The MTT procedure followed was as follows. Briefly, the cells were plated in 96 well plate as per predetermined plating efficiency (Table 1) The plates were then incubated for 24 hrs in 5% CO2 atmosphere at 37° C. Appropriate concentrations of the drugs were then added to the plate and further incubation was carried out for 48 hrs (in 5% CO2 atmosphere at 37° C.). The assay plate was then centrifuged twice at 3000 rpm for 3 mins and supernatant was then discarded. 100 ul of MTT solution (0.5 mg/ml) was then added to each well of the plate and it was further incubated for 4 hrs (in 5% CO2 atmosphere at 37° C.) Following 4 hr incubation, the plate was then centrifuged twice, and supernatant was aspirated off very carefully. 200 ul of DMSO was then added to each well to solubilize. MTT crystals and mixed well by shaking the plate. XY graph of log Percent viability was then plotted against log drug concentration. […] (Drug concentration inhibiting the 50% of cell population) was then calculated by regression analysis.

[2] = tested on: PC3; assay: MTT antiproliferative assay, PC3; assay type: cell-based; details: PC3 prostate cell line, 48 hrs drug incubation
Method: as §1, §2, §3

[3] = tested on: MCF7; assay: MTT antiproliferative assay, MCF7; assay type: cell-based; details: MCF-7 breast cell line, 48 hrs drug incubation
Method: as §1, §2, §3

[4] = tested on: spheres of MDAMB231; assay: In vitro sphere-forming assay, MDAMB231 in Mammosphere media; assay type: cell-based; details: 2000 cells/well, n = 6 ± S.D
Excerpt: (§4) Sphere assay measures the ability of Cancer Stein Cells to form spheres in specially designed serum-free medium. We have used this assay to measure the killing efficiency of the test compounds as compared to the standard chemotherapeutic drug, Cisplatin.
(§5) Materials and Reagents:50× B27 Supplement (Life Technologies, Invitrogen, Catalog No.: 17502-044), Fibroblast Growth Factor (FGF) (Sigma-Aldrich, Catlog No.: F029125), Epidermal Growth Factor (EGF) (Sigma-Aldrich, Catlog No.: E9644), Insulin (Sigma, Catlog No.: 19278), Dulbecco's Modified Eagle Medium/F12 (HiMedia Catlog No.: AL139-6), Dulbecco's Phosphate Buffered Saline (HiMedia Catlog No.: TL1006), Trypan Blue (TC193), Prostate Epithelial Media (LONZA, Catlog No.: CC-3166) MEGM (LONZA, Catlog No.: CC-3051), Heparin (Sigma, Catlog No.: H3393), Penstrep (HiMedia, Catlog No.: A002)
Mammosphere Media Preparation (For 100 mL): 1 g methyl cellulose autoclaved with magnetic stirrer Plain media (MEBM), 100 mL added and dissolved under magnetic stirring. After complete dissolution, add: FGF-80 μL, EGF-40 μL, Penstrep-1 mL, Heparin-400 μL.
(§6) Procedure: —The cells were trypsinised and made into single-cell suspension by passing through cell strainers ([…], respectively), The cells were diluted at the concentration of 2000 cells/100 μL and suspended in either Mammosphere (for breast cell lines) or Prostosphere (for prostate cell lines). 100 μL of this suspension was added into each well of 96-well suspension plates and incubated at 37° C., 5% CO2 for 24 hrs. Appropriate concentrations of the drugs (2 μL) were added into respective wells with 100 μL of stem cell culture medium. Plates were incubated at 37° C., 5% CO2 for 72 hrs. After incubation 2.5 μL of the respective drug concentration and 50 μL of stem cell culture medium were added into each well and the plates were further incubated at 37° C., 5% CO2 for 72 hrs. 3 μL of the respective drug concentration was added with 50 μL of stem cell culture medium again after incubation and plates were incubated again for 72 hrs at 37° C., 5% CO2. Number of primary spheres formed for each concentration was counted. A comparative graph of number of spheres formed was plotted against the concentration and the growth curve was compared with the positive control.

[5] = tested on: spheres of PC3; assay: In vitro sphere-forming assay, PC3 in Prostosphere media; assay type: cell-based; details: 2000 cells/well, n = 6 ± S.D
Excerpt: as §4, §5
Prostosphere Media Preparation (For 100 mL):1 g methyl cellulose autoclaved with magnetic stirrer, Plain media (Prostate Epithelial Basal Medium), 100 mL added and dissolved, under magnetic stirring. After complete dissolution, add: Insulin-40 μL, B27-2 mL, EGF-80 μL, Penstrep-1 ml.
as §6

[6] = tested on: MDAMB231; assay: Soft Agar colony-formation Assay, MDAMB231; assay type: cell-based; details: MDAMB231 breast cell line, 1 week
Method: (§7) The Soft Agar Colony-formation Assay is an anchorage-independent growth assay in soft agar, which is one of the most stringent assays for detecting malignant transformation of cells. For this assay, malignant cells are cultured with appropriate controls in soft agar medium for 1-2 weeks. Following this incubation period, formed colonies can either be analyzed morphologically using cell stain and quantifying the number of colonies formed.
(§8) Briefly, for Soft Agar Assay a mixture of 50 ul of 2× medium (taken appropriately as per cell line) and 50 ul of 1.2% Bacto Agar were plated on to each well of 96 well micro titer assay plate. 10 ul of cells (Of specific plating efficiency pre-standardized for respective cell line) were mixed with 20 ul of 2× medium and 30 ul of 0.8% of Bacto Agar and 1.6 ul of drug (of appropriate concentration) in a vial and transferred to the solidified pre-layers of the assay plates. The cells were then allowed to grow and form colonies at 37° C. and 5% CO2 for 1 week. An intermittent feeding with 50 ul of appropriate 2× medium was performed after 3 days of experimental set up. 16 ul of Alamar Blue (1.5 mg/ml) was then added to all the wells to quantify the developed colonies. The plates were incubated for 24 hrs at 37° C. Absorbance was then measured at 630 nm. XY graph of log Percent viability was then plotted against log drug concentration. IC50 (Drug concentration inhibiting the 50% of cell population) was then calculated by regression analysis.
(§9) Following Plating Efficiencies Were Standardized for Soft Agar Assay: […]

[7] = tested on: DU145; assay: MTT antiproliferative assay, DU145; assay type: cell-based; details: DU145 prostate cell line, 48 hrs drug incubation
Method: as §1, §2, §3

[8] = tested on: PC3; assay: Soft Agar colony-formation Assay, PC3; assay type: cell-based; details: PC3 prostate cell line, 1 week
Method: as §7, §8, §9

[9] = tested on: normal lymphocytes; assay: Normal cell assay (MTT) on lymphocytes from a healthy donor
Method: In order to test the activity of cytotoxic drugs towards normal cells, we performed MTT
Assay for these cytotoxic drugs using lymphocytes obtained from a healthy donor.
Briefly, diluted defibrinated fresh blood was overlaid gradually on HiSeP LSM1077 and centrifuged at low speed for 30 mins. The lymphocyte layer (the buffy coat) (Fig) was carefully removed in a new collection tube. The buffy coat was given another wash, by the diluent buffer, to reduce the platelet contamination. The supernatant was discarded, and the pellet was resuspended in diluent buffer. The viability was checked by Haemocytometer. Cells with Viability and Purity of 95% and more were considered for the assay. MTT assay was performed with these cells as described above with plating efficiency of 0.7 million/ml.

[10] = Homo sapiens, MDA-MB-231, 168 h

IC50 ([1]; Homo sapiens, MDA-MB-231)	IC50 ([2]; Homo sapiens, PC-3)	IC50 ([3]; Homo sapiens, MCF7)	IC50 [6, 10]	IC50 ([7]; Homo sapiens, DU-145)	IC50 ([8]; Homo sapiens, PC-3, 168 h)	SMILES	3D sphere count of MDAMB231 ([4]; drug conc 0.025 uM)	3D sphere count of MDAMB231 ([4]; drug conc 0.25 uM)	3D sphere count of MDAMB231 ([4]; drug conc 2.5 uM)	3D sphere count of MDAMB231 ([4]; drug conc 25 uM)	3D sphere count of MDAMB231 ([4]; drug conc 250 uM)	3D sphere count of PC3 ([5]; drug conc 0.025 uM)	3D sphere count of PC3 ([5]; drug conc 0.25 uM)	3D sphere count of PC3 ([5]; drug conc 2.5 uM)	3D sphere count of PC3 ([5]; drug conc 25 uM)	3D sphere count of PC3 ([5]; drug conc 250 uM)	also measured
						N.N.[Cl][Pt][Cl] [Cisplatin, reference compound]	50(±3) and 89(±4) and 62(±6) and 67(±2)	42(±3) and 69(±7) and 48(±2) and 58(±3)	35(±2) and 51(±5) and 43(±2) and 46(±3)	31(±3) and 38(±8) and 37(±4) and 35(±2)	18(±2) and 23(±5) and 31(±4) and 26(±3)	58(±4) and 47(±4) and 62(±5) and 45(±2)	47(±5) and 49(±7) and 55(±5) and 42(±3)	40(±3) and 41(±4) and 46(±2) and 39(±2)	32(±2) and 31(±5) and 33(±3) and 32(±3)	25(±3) and 30(±5) and 22(±4) and 21(±2)	IC50 [1]: 32.7 µM and 38.5 µM and 37 µM and 35.5 µM; IC50 [2]: 28 µM and 29 µM and 40.7 µM and 35.8 µM and 36.4 µM; IC50 [3]: 29.6 µM and 32.4 µM and 33 µM; IC50 [6]: 41.7 µM and 24.8 µM and 37.3 µM and 23.9 µM; IC50 [7]: 23.9 µM and 43 µM and 34.4 µM and 35.5 µM; IC50 [8]: 20.6 µM and 21.3 µM and 23.8 µM and 21.9 µM
5.26 µM	5.62 µM	5.24 µM	2.12 µM	8.91 µM	4.81 µM	O=C(Oc1ccc(-c2ccc3c(c2)OCO3)c2ccccc12)C(c1ccccc1)C1CCCC1 (stereo not drawn) [Formula IX, 1-(benzo[d][1,3]dioxol-5-yl)naphthalen-4-yl 2-cyclopentyl-2-phenylacetate]	52(±4)	40(±5)	26(±3)	22(±3)	0(±0)	60(±7)	44(±4)	37(±5)	31(±3)	0(±0)	
10.1 µM	5.65 µM		14.2 µM		3.25 µM	CCOC(=O)c1c(C(=O)OCC)c(-c2ccc3c(c2)OCO3)c2cc(OC)c(OC)cc2c1OC1OC[C@@H](OC)[C@H](OC)[C@H]1O (stereo partly drawn) [Formula VI, diethyl 1-(benzo[d][1,3]dioxol-5-yl)-4-((3R,4R,5R)-3-hydroxy-4,5-dimethoxy-tetrahydro-2H-pyran-2-yloxy)-6,7-dimethoxynaphthalene-2,3-dicarboxylate]	44(±3)	36(±2)	24(±3)	7(±2)	0(±0)	40(±3)	28(±2)	30(±2)	21(±2)	0(±0)	activity on normal lymphocytes [9]: does not show activity
3.16 µM	2.6 µM	3.46 µM	2.07 µM	3.28 µM	2.38 µM	Cn1cccc1C(=O)Oc1ccc(-c2ccc3c(c2)OCO3)c2ccccc12 [Formula X, 1-(benzo[d][1,3]dioxol-5-yl)naphthalen-4-yl 1-methyl-1H-pyrrole-2-carboxylate]	39(±4)	37(±4)	28(±3)	24(±3)	0(±0)						activity on normal lymphocytes [9]: does not show activity
9.77 µM	4.16 µM	4.36 µM	2.08 µM	10.2 µM	18.8 µM	O[C@@H]1[C@H](O)COC(Oc2ccc(-c3ccc4c(c3)OCO4)c3ccccc23)[C@H]1O (stereo partly drawn) [Formula XI, (3S,4R,5R)-2-(1-(benzo[d][1,3]dioxol-5-yl)naphthalen-4-yloxy)-tetrahydro-2H-pyran-3,4,5-triol]											
3.37 µM	19.6 µM	4.95 µM	2.14 µM	9.82 µM	3.36 µM	O=C(Nc1ccc(-c2ccc3c(c2)OCO3)c2ccccc12)c1ccco1 [Formula XII, N-(1-(benzo[d][1,3]dioxol-5-yl)naphthalen-4-yl)furan-2-carboxamide]	31(±2)	27(±2)	17(±2)	8(±1)	0(±0)	37(±3)	28(±3)	23(±2)	15(±2)	0(±0)	
8 µM	4.33 µM		2.68 µM	4.06 µM	6.32 µM	Cl.c1ccc(COc2ccc(-c3ccc4c(c3)OCO4)c3cccnc23)cc1 [Formula XIII, 5-(benzo[d][1,3]dioxol-5-yl)-8-(benzyloxy)quinoline hydrochloride]	45(±2)	36(±3)	27(±2)	13(±2)	0(±0)	41(±7)	39(±5)	27(±3)	14(±1)	0(±0)	
